This note sets out measurements from US20230295130A1, “COMPOUND USEFUL AS CDK7 KINASE INHIBITOR AND USE THEREOF” (TYK MEDICINES, INC., priority 2020, published 2023).

What all share (test): Enzyme activity test, mobility shift assay (Table 1)
Type in all cases: biochemical

Test [1] addresses CDK7/Cyclin H/MAT1 kinase (Homo sapiens (Human), UniProt P50613). The settings on record: 2 mM ATP; pre-incubated 0 and 60 minutes.
For the next test, the target named is CDK2/Cyclin El (Homo sapiens (Human), UniProt P24941). The settings on record: 2 mM ATP; read-out: CDK2 kinase IC50. The protocol:
(§1) The compound powder was dissolved in 100% DMSO to prepare a 10 mM storage solution. The storage solution was further diluted to 0.5 mM as the initial concentration, and continuously diluted 3 times to obtain 10 compound solutions with different concentrations. The compound and enzyme were pre-incubated for 0 minutes and 60 minutes, respectively, using duplicate detection.
(§2) was used as a positive control, and Mobility shift assay method was used to detect CDK kinase (such as CDK7, CDK9, CDK12 and CDK2) activity of the compounds.

Another test deals with CDK9/Cyclin Tl (Homo sapiens (Human), UniProt P50750). The settings on record: 2 mM ATP; read-out: CDK9 kinase IC50. The protocol: as §1, §2
For test [2], the target named is CDK12 (aa686-1082)/Cyclin K (Homo sapiens (Human), UniProt Q9NYV4). The settings on record: 2 mM ATP; read-out: CDK12 kinase IC50. The method, then: The compound powder was dissolved in 100% DMSO to prepare a 10 mM storage solution. The storage solution was further diluted to 0.5 mM as the initial concentration, and continuously diluted 3 times to obtain 10 compound solutions with different concentrations. The compound and enzyme were pre-incubated for 0 minutes and 60 minutes, respectively, using duplicate detection. Compound Staurosporine having a structural formula of
as §2

As usually defined, the IC50 is the concentration at which inhibition is half-maximal.

Sequence of CDK12 (aa686-1082)/Cyclin K (Q9NYV4 686-1082): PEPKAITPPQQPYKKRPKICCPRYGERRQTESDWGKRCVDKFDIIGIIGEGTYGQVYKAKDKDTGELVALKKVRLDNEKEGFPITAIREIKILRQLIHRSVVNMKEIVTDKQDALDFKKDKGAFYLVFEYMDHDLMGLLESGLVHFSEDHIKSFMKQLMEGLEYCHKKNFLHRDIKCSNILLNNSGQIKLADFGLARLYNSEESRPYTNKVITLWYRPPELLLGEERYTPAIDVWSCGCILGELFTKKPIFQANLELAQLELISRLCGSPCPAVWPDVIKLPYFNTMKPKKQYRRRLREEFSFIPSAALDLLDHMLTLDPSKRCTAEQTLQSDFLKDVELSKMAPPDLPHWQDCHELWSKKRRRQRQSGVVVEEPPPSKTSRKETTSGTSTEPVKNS
Sequence of CDK12 (aa686-1082)/Cyclin K (O75909 whole entry partner, the tested form may be a part): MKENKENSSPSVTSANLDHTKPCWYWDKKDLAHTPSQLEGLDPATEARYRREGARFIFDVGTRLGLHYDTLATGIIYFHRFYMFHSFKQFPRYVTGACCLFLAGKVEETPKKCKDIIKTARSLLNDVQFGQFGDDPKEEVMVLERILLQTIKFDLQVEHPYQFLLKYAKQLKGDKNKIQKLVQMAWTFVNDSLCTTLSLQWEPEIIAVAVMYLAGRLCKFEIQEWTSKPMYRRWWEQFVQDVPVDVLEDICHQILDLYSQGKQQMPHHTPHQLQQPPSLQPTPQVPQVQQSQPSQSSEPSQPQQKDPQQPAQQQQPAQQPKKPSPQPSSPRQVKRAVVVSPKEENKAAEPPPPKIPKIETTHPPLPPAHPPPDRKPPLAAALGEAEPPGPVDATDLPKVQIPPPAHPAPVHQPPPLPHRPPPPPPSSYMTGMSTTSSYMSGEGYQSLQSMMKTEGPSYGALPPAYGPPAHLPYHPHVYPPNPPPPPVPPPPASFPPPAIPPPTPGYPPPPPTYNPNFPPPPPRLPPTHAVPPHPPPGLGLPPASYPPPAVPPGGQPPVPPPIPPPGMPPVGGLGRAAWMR
Sequence of CDK9/Cyclin Tl (P50750 whole entry, the tested form may be a part): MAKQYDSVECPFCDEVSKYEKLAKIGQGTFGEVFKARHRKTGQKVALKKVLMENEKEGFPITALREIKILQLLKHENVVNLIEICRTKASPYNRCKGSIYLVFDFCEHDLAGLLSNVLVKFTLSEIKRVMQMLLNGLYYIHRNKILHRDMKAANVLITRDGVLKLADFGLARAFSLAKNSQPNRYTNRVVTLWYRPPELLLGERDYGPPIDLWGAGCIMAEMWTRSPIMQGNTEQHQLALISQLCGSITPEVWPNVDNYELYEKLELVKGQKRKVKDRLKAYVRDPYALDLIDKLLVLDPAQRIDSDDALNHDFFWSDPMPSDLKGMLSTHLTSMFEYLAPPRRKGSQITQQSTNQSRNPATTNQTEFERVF
Sequence of CDK9/Cyclin Tl (O60563 whole entry partner, the tested form may be a part): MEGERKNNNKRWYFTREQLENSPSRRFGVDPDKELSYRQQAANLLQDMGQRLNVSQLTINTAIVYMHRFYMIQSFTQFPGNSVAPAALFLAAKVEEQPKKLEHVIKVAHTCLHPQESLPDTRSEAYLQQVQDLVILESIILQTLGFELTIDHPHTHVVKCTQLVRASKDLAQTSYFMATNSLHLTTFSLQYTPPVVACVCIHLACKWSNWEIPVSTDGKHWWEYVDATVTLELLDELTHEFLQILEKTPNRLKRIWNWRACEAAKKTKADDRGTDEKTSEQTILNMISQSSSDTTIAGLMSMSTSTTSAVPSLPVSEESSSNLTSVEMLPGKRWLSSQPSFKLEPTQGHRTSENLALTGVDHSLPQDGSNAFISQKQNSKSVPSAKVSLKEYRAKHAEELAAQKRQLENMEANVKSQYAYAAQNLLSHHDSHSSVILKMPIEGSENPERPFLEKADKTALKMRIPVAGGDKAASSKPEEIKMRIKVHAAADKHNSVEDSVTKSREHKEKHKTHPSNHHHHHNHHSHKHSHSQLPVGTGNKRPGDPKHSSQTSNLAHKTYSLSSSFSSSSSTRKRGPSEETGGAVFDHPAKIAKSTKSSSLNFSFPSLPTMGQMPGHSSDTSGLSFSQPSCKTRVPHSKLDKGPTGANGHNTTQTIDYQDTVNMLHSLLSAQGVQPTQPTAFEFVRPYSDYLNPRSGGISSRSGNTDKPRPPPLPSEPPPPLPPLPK
Sequence of CDK7/Cyclin H/MAT1 kinase (P50613 whole entry): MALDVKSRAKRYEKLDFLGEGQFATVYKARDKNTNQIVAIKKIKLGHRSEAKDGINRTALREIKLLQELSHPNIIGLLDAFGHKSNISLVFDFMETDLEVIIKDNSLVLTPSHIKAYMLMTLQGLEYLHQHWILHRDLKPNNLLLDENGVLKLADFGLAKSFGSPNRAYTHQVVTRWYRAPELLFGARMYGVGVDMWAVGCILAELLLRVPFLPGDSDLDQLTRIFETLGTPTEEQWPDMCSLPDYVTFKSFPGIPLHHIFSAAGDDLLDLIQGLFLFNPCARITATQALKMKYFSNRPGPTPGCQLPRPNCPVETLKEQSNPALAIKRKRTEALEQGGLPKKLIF
Sequence of CDK7/Cyclin H/MAT1 kinase (P51946 whole entry partner): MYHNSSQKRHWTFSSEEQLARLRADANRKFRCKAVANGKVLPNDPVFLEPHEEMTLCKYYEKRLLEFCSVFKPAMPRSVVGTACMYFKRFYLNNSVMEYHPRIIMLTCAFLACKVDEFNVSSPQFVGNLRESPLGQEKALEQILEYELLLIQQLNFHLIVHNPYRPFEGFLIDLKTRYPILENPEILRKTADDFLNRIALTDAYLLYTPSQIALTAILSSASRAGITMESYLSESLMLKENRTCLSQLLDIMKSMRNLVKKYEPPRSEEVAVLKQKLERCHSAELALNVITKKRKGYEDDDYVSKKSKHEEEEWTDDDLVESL
Sequence of CDK7/Cyclin H/MAT1 kinase (P51948 whole entry partner): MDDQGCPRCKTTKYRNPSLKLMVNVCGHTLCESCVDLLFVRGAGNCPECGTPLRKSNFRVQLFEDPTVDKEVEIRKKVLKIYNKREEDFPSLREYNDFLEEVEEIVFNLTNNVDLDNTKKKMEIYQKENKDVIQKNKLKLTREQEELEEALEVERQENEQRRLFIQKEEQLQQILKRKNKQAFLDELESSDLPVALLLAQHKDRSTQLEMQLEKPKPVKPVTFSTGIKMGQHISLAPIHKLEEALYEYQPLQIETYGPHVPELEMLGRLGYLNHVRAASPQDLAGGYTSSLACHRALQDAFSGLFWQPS

Consider `COC(=O)Nc1ccc2c(-c3nc(N[C@H]4CCC5(CC5)NC4)ncc3C(F)(F)F)c[nH]c2c1C(F)(F)F` [Example T-100], for which the IC50 was < 50 nM in test [1], > 500 nM at CDK2/Cyclin El, > 500 nM on CDK9/Cyclin Tl and > 500 nM in test [2].

Regarding `COC(=O)N(C)c1ccc2c(-c3nc(N[C@H]4CCCNC4)ncc3C(F)(F)F)c[nH]c2c1Br` [Example T-102], the IC50 is < 50 nM in test [1], > 500 nM at CDK2/Cyclin El, > 500 nM on CDK9/Cyclin Tl and > 500 nM in test [2].

With `COC(=O)Nc1ccc2c(-c3nc(N[C@H]4CCC(C)(C)NC4)ncc3C(F)(F)F)c[nH]c2c1C1CC1(F)F` (stereo partly shown) [Example T-105], the half-inhibitory concentration (IC50) in test [1] is < 50 nM; on CDK2/Cyclin El it was > 500 nM; on CDK9/Cyclin Tl, > 500 nM; in test [2] it was > 500 nM.

As for `COC(=O)Nc1ccc2c(-c3nc(N[C@H]4CCC(C)(C)NC4)ncc3C(F)(F)F)c[nH]c2c1C1CC(F)(F)C1` [Example T-106], the IC50 in test [1] is < 50 nM; on CDK2/Cyclin El, > 500 nM; at CDK9/Cyclin Tl, > 500 nM; in test [2], > 500 nM.

Take `COC(=O)Nc1ccc2c(-c3nc(N[C@H]4CCC(C)(C)NC4)ncc3C(F)(F)F)c[nH]c2c1C(F)F` [Example T-107]: the IC50 was < 50 nM in test [1], > 500 nM at CDK2/Cyclin El, > 500 nM on CDK9/Cyclin Tl and > 500 nM in test [2].

Regarding `COC(=O)Nc1ccc2c(-c3nc(N[C@H]4CCC(C)(C)NC4)ncc3C(F)(F)F)c[nH]c2c1OC(F)F` [Example T-108], the IC50 in test [1] was < 50 nM; at CDK2/Cyclin El, > 500 nM; at CDK9/Cyclin Tl it was > 500 nM; in test [2], > 500 nM.

As for `COC(=O)Nc1ccc2c(-c3nc(N[C@H]4CCC(C)(C)NC4)ncc3C(F)(F)F)c[nH]c2c1OC(F)(F)F` [Example T-109], the IC50 in test [1] is < 50 nM; on CDK2/Cyclin El, > 500 nM; at CDK9/Cyclin Tl it was > 500 nM; in test [2], > 500 nM.

`CCOC(=O)Nc1ccc2c(-c3nc(N[C@H]4CCCNC4)ncc3C(F)(F)F)c[nH]c2c1C1CC1` [Example T-127]: the IC50 in test [1] was < 50 nM; at CDK2/Cyclin El, > 500 nM; at CDK9/Cyclin Tl it was > 500 nM; in test [2], > 500 nM.

Regarding `COC(=O)Nc1ccc2c(-c3nc(N[C@H]4CCC(C)NC4)ncc3C(F)(F)F)c[nH]c2c1C1CC1` (stereo partly shown) [Example T-129], the IC50 in test [1] was 50 to 500 nM; on CDK2/Cyclin El, > 500 nM; on CDK9/Cyclin Tl, > 500 nM; in test [2], > 500 nM.

`COC(=O)Nc1ccc2c(-c3nc(N[C@H]4CC[C@@H](C)NC4)ncc3C(F)(F)F)c[nH]c2c1C1CC1` [Example T-130]: the IC50 in test [1] is 50 to 500 nM; on CDK2/Cyclin El it was > 500 nM; at CDK9/Cyclin Tl it was > 500 nM; in test [2], > 500 nM.

On to `COC(=O)Nc1ccc2c(-c3nc(N[C@H]4CC[C@H](C)NC4)ncc3C(F)(F)F)c[nH]c2c1C1CC1` [Example T-131], for which the IC50 is 50 to 500 nM in test [1], > 500 nM on CDK2/Cyclin El, > 500 nM at CDK9/Cyclin Tl and > 500 nM in test [2].

As for `COC(=O)Nc1ccc2c(-c3nc(N[C@H]4CCC(C)(C)NC4)ncc3C(F)(F)F)c[nH]c2c1C(C)=O` [Example T-134], the concentration for half-maximal inhibition (IC50) in test [1] was < 50 nM; at CDK2/Cyclin El, > 500 nM; at CDK9/Cyclin Tl, > 500 nM; in test [2], > 500 nM.

As for `COC(=O)Nc1ccc2c(-c3nc(N[C@H]4CCC(C)(C)NC4)ncc3C(F)(F)F)c[nH]c2c1C(C)(F)F` [Example T-136], the IC50 was < 50 nM in test [1], > 500 nM on CDK2/Cyclin El, > 500 nM on CDK9/Cyclin Tl and > 500 nM in test [2].

With `COC(=O)Nc1ccc2c(-c3nc(N[C@H]4CCC5(CC5)NC4)ncc3C(F)(F)F)c[nH]c2c1C(C)(F)F` [Example T-137], the IC50 in test [1] was < 50 nM; at CDK2/Cyclin El, > 500 nM; on CDK9/Cyclin Tl, > 500 nM; in test [2] it was > 500 nM.

Consider `CCOc1c(NC(=O)OC)ccc2c(-c3nc(N[C@H]4CCCNC4)ncc3C(F)(F)F)c[nH]c12` [Example T-138], for which the half-maximal inhibitory concentration (IC50) in test [1] was < 50 nM; on CDK2/Cyclin El, > 500 nM; on CDK9/Cyclin Tl it was > 500 nM; in test [2], > 500 nM.

As to `COC(=O)Nc1ccc2c(-c3nc(N[C@H]4CCCNC4)ncc3C(F)(F)F)c[nH]c2c1OCC(F)(F)F` [Example T-139], the IC50 in test [1] is < 50 nM; at CDK2/Cyclin El, > 500 nM; at CDK9/Cyclin Tl it was > 500 nM; in test [2], > 500 nM.

Regarding `COC(=O)Nc1ccc2c(-c3nc(N[C@H]4CC[C@@H](C)NC4)ncc3C(F)(F)F)c[nH]c2c1OC` [Example T-140], the IC50 is 50 to 500 nM in test [1], > 500 nM on CDK2/Cyclin El, > 500 nM at CDK9/Cyclin Tl and > 500 nM in test [2].

Consider `COC(=O)Nc1ccc2c(-c3nc(N[C@H]4CC[C@@H](C)NC4)ncc3C(F)(F)F)c[nH]c2c1Br` [Example T-143], for which the concentration for half-maximal inhibition (IC50) is 50 to 500 nM in test [1], > 500 nM on CDK2/Cyclin El, > 500 nM on CDK9/Cyclin Tl and > 500 nM in test [2].

Consider `COC(=O)Nc1ccc2c(-c3nc(N[C@H]4CC[C@@H](C)NC4)ncc3C(F)(F)F)c[nH]c2c1Cl` [Example T-146], for which the IC50 in test [1] is 50 to 500 nM; at CDK2/Cyclin El it was > 500 nM; at CDK9/Cyclin Tl it was > 500 nM; in test [2], > 500 nM.

Consider `COC(=O)Nc1ccc2c(-c3nc(N[C@H]4CC[C@@H](C)NC4)ncc3C(F)(F)F)c[nH]c2c1C(F)(F)F` [Example T-149], for which the IC50 is 50 to 500 nM in test [1], > 500 nM at CDK2/Cyclin El, > 500 nM on CDK9/Cyclin Tl and > 500 nM in test [2].

For `COC(=O)Nc1ccc2c(-c3nc(N[C@H]4CC[C@@H](C)NC4)ncc3C(F)(F)F)c[nH]c2c1OCC(F)(F)F` [Example T-151], the IC50 in test [1] was 50 to 500 nM; at CDK2/Cyclin El, > 500 nM; on CDK9/Cyclin Tl it was > 500 nM; in test [2] it was > 500 nM.

On to `CCOC(=O)Nc1ccc2c(-c3nc(N[C@H]4CCC(C)(C)NC4)ncc3C(F)(F)F)c[nH]c2c1C(C)(F)F` [Example T-153], for which the IC50 in test [1] was < 50 nM; on CDK2/Cyclin El it was > 500 nM; on CDK9/Cyclin Tl, > 500 nM; in test [2], > 500 nM.

`COC(=O)Nc1ccc2c(-c3nc(N[C@H]4CCC5(CC5)NC4)ncc3C(F)(F)F)c[nH]c2c1OC(F)F` [Example T-154]: the IC50 in test [1] was < 50 nM; at CDK2/Cyclin El it was > 500 nM; on CDK9/Cyclin Tl, > 500 nM; in test [2], > 500 nM.

Take `COC(=O)Nc1ccc2c(-c3nc(N[C@H]4CCCNC4)ncc3C(F)(F)F)c[nH]c2c1C(F)F` [Example T-155]: the IC50 in test [1] was < 50 nM; at CDK2/Cyclin El it was > 500 nM; at CDK9/Cyclin Tl it was > 500 nM; in test [2], > 500 nM.

In the case of `CCOc1c(NC(=O)OC)ccc2c(-c3nc(N[C@H]4CCCN(C)C4)ncc3C(F)(F)F)c[nH]c12` [Example T-161], the IC50 in test [1] was < 50 nM; on CDK2/Cyclin El, > 500 nM; on CDK9/Cyclin Tl, > 500 nM; in test [2], > 500 nM.

On to `COC(=O)N(C)c1ccc2c(-c3nc(N[C@H]4CCCNC4)ncc3C(F)(F)F)c[nH]c2c1Cl` [Example T-162], for which the IC50 in test [1] was < 50 nM; on CDK2/Cyclin El, > 500 nM; on CDK9/Cyclin Tl, > 500 nM; in test [2] it was > 500 nM.

As for `COC(=O)N(C)c1ccc2c(-c3nc(N[C@H]4CCCNC4)ncc3C(F)(F)F)c[nH]c2c1C(F)F` [Example T-163], the IC50 in test [1] was < 50 nM; on CDK2/Cyclin El, > 500 nM; on CDK9/Cyclin Tl it was > 500 nM; in test [2], > 500 nM.

As to `COC(=O)N(C)c1ccc2c(-c3nc(N[C@H]4CCCNC4)ncc3C(F)(F)F)c[nH]c2c1C(F)(F)F` [Example T-164], the IC50 is < 50 nM in test [1], > 500 nM on CDK2/Cyclin El, > 500 nM at CDK9/Cyclin Tl and > 500 nM in test [2].

For `COC(=O)N(C)c1ccc2c(-c3nc(N[C@H]4CCCNC4)ncc3C(F)(F)F)c[nH]c2c1OC(F)F` [Example T-165], the IC50 in test [1] was < 50 nM; on CDK2/Cyclin El, > 500 nM; on CDK9/Cyclin Tl, > 500 nM; in test [2], > 500 nM.

Turning to `COC(=O)Nc1ccc2c(-c3nc(N[C@H]4CCCN(C)C4)ncc3C(F)(F)F)c[nH]c2c1Cl` [Example T-168], the IC50 is < 50 nM in test [1], > 500 nM on CDK2/Cyclin El, > 500 nM on CDK9/Cyclin Tl and > 500 nM in test [2].

For `COC(=O)Nc1ccc2c(-c3nc(N[C@H]4CCCN(C)C4)ncc3C(F)(F)F)c[nH]c2c1C(F)F` [Example T-169], the IC50 in test [1] was < 50 nM; at CDK2/Cyclin El, > 500 nM; at CDK9/Cyclin Tl it was > 500 nM; in test [2], > 500 nM.
